Experimental data as given in patent publication US20100298141A1, “SUBSTITUTED PYRIDINE N-OXIDE HERBICIDES” (E. I. DU PONT DE NEMOURS AND COMPANY, priority 2007, published 2010).

How the values were obtained:
duck salad = experiment: Test C flooded paddy test; format: in vivo, Heteranthera limosa; conditions: Flood
In short: (§1)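 Pots were flooded to 3 cm above the soil surface at treatment, compound applied directly to the paddy water, and that depth held throughout. Plants were kept in a greenhouse for 13 to 15 days, then visually rated against untreated controls.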

rice = experiment: Test C flooded paddy test; format: in vivo, Oryza sativa; conditions: Flood
In short: as §1

barnyardgrass [1] = experiment: Test A pre-/postemergence greenhouse test; format: in vivo, Echinochloa crus-galli; conditions: for Plant response rating, Barnyardgrass: 0 to 100 scale where 0 is no effect and 100 is complete control; for Barnyardgrass plant response rating: 0 to 100 scale
In short: (§2)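 Untreated controls served as the reference for visual injury ratings taken about ten days after spraying. The non-phytotoxic solvent/surfactant formulation was applied preemergence to seeded loam and sand and postemergence to plants two to ten cm high.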

wheat = experiment: Test A pre-/postemergence greenhouse test; format: in vivo, Triticum aestivum; conditions: for Wheat plant response rating: 0 to 100 scale; for Plant response rating, Wheat: 0 to 100 scale where 0 is no effect and 100 is complete control
In short: as §2

umbrella sedge = experiment: Test C flooded paddy test; format: in vivo, Cyperus difformis; conditions: Flood
In short: as §1

velvetleaf = experiment: Test A pre-/postemergence greenhouse test; format: in vivo, Abutilon theophrasti; conditions: for Plant response rating, Velvetleaf: 0 to 100 scale where 0 is no effect and 100 is complete control; for Velvetleaf plant response rating: 0 to 100 scale
In short: as §2

redroot pigweed = experiment: Test A pre-/postemergence greenhouse test; format: in vivo, Amaranthus retroflexus; conditions: for Plant response rating, Pigweed: 0 to 100 scale where 0 is no effect and 100 is complete control; for Pigweed plant response rating: 0 to 100 scale
In short: as §2

barnyardgrass [2] = experiment: Test C flooded paddy test; format: in vivo, Echinochloa crus-galli; conditions: Flood
In short: as §1

giant foxtail = experiment: Test A pre-/postemergence greenhouse test; format: in vivo, Setaria faberi; conditions: for Plant response rating, Foxtail, Giant: 0 to 100 scale where 0 is no effect and 100 is complete control; for Foxtail, Giant plant response rating: 0 to 100 scale
In short: as §2

morningglory = experiment: Test A pre-/postemergence greenhouse test; format: in vivo, Ipomoea spp.; conditions: for Plant response rating, Morningglory: 0 to 100 scale where 0 is no effect and 100 is complete control; for Morningglory plant response rating: 0 to 100 scale
In short: as §2

crabgrass = experiment: Test A pre-/postemergence greenhouse test; format: in vivo, Digitaria sanguinalis; conditions: for Plant response rating, Crabgrass, Large: 0 to 100 scale where 0 is no effect and 100 is complete control; for Crabgrass, Large plant response rating: 0 to 100 scale
In short: as §2

corn = experiment: Test A pre-/postemergence greenhouse test; format: in vivo, Zea mays; conditions: for Corn plant response rating: 0 to 100 scale; for Plant response rating, Corn: 0 to 100 scale where 0 is no effect and 100 is complete control
In short: as §2

[3] = 62 g ai/ha, scale 0 to 100 (0 no effect, 100 complete control)
[4] = 250 g ai/ha, scale 0 to 100, 0 no effect, 100 complete control, 13 to 15 days
[5] = Postemergence, 500 g ai/ha, 0 is no effect, 100 is complete control
[6] = Preemergence, 125 g ai/ha, 0 no effect, 100 complete control
[7] = Preemergence, 500 g ai/ha, 0 no effect, 100 complete control
[8] = 62 g ai/ha, scale 0 to 100, 0 no effect, 100 complete control, 13 to 15 days
[9] = 31 g ai/ha, scale 0 to 100 (0 no effect, 100 complete control)
[10] = 125 g ai/ha, scale 0 to 100, 0 no effect, 100 complete control, 13 to 15 days
[11] = Postemergence, 125 g ai/ha, 0 is no effect, 100 is complete control

CC(Oc1c(CS(=O)(=O)c2ccc(Cl)c[n+]2[O-])c(C(F)(F)F)nn1C)C(F)(F)F (centres unmarked) [Compound 95]
Plant response rating, Ducksalad (duck salad; [3]): 0 | Plant response rating, Ducksalad (duck salad; [4]): 80 | Plant response rating, Rice (rice; [3]): 0 | Plant response rating, Rice (rice; [4]): 20 | Plant response rating, Barnyardgrass (barnyardgrass [1]; Postemergence, 125 g ai/ha): 50 | Barnyardgrass plant response rating (barnyardgrass [1]; [5]): 70 | Barnyardgrass plant response rating (barnyardgrass [1]; [6]): 10 | Plant response rating, Barnyardgrass (barnyardgrass [1]; Preemergence, 500 g ai/ha): 90 | Wheat plant response rating (wheat; [5]): 30 | Wheat plant response rating (wheat; [6]): 0 | Wheat plant response rating (wheat; [7]): 30 | Plant response rating, Sedge, Umbrella (umbrella sedge; [3]): 0 | Plant response rating, Sedge, Umbrella (umbrella sedge; [4]): 35 | Plant response rating, Velvetleaf (velvetleaf; Postemergence, 125 g ai/ha): 40 | Velvetleaf plant response rating (velvetleaf; [5]): 40 | Velvetleaf plant response rating (velvetleaf; [6]): 0 | Velvetleaf plant response rating (velvetleaf; [7]): 0 | Plant response rating, Pigweed (redroot pigweed; Postemergence, 125 g ai/ha): 0 | Pigweed plant response rating (redroot pigweed; [5]): 30 | Pigweed plant response rating (redroot pigweed; [6]): 0 | Plant response rating, Pigweed (redroot pigweed; Preemergence, 500 g ai/ha): 10 | Plant response rating, Barnyardgrass (barnyardgrass [2]; [3]): 0 | Plant response rating, Barnyardgrass (barnyardgrass [2]; [4]): 20 | Plant response rating, Foxtail, Giant (giant foxtail; Postemergence, 125 g ai/ha): 20 | Foxtail, Giant plant response rating (giant foxtail; [5]): 80 | Foxtail, Giant plant response rating (giant foxtail; [6]): 70 | Plant response rating, Foxtail, Giant (giant foxtail; Preemergence, 500 g ai/ha): 90 | Plant response rating, Morningglory (morningglory; Postemergence, 125 g ai/ha): 0 | Morningglory plant response rating (morningglory; [5]): 20 | Morningglory plant response rating (morningglory; [6]): 0 | Plant response rating, Morningglory (morningglory; Preemergence, 500 g ai/ha): 20 | Plant response rating, Crabgrass, Large (crabgrass; Postemergence, 125 g ai/ha): 20 | Crabgrass, Large plant response rating (crabgrass; [5]): 80 | Crabgrass, Large plant response rating (crabgrass; [6]): 20 | Plant response rating, Crabgrass, Large (crabgrass; Preemergence, 500 g ai/ha): 80 | Corn plant response rating (corn; [5]): 0 | Corn plant response rating (corn; [6]): 0 | Plant response rating, Corn (corn; Preemergence, 500 g ai/ha): 0

[O-][n+]1ccccc1[S+]([O-])C(Cl)c1c(C(F)(F)F)nn(CC(F)(F)F)c1Cl (centres unmarked) [Compound 45]
Plant response rating, Ducksalad (duck salad; [8]): 40 | Plant response rating, Ducksalad (duck salad; [4]): 75 | Plant response rating, Rice (rice; [8]): 0 | Plant response rating, Rice (rice; [4]): 25 | Plant response rating, Barnyardgrass (barnyardgrass [1]; Postemergence, 125 g ai/ha): 40 | Barnyardgrass plant response rating (barnyardgrass [1]; [5]): 70 | Barnyardgrass plant response rating (barnyardgrass [1]; [6]): 0 | Plant response rating, Barnyardgrass (barnyardgrass [1]; Preemergence, 500 g ai/ha): 100 | Plant response rating, Wheat (wheat; Postemergence, 125 g ai/ha): 0 | Wheat plant response rating (wheat; [5]): 0 | Wheat plant response rating (wheat; [6]): 0 | Plant response rating, Wheat (wheat; Preemergence, 500 g ai/ha): 30 | Plant response rating, Sedge, Umbrella (umbrella sedge; [4]): 80 | Plant response rating, Velvetleaf (velvetleaf; Postemergence, 125 g ai/ha): 30 | Velvetleaf plant response rating (velvetleaf; [5]): 40 | Velvetleaf plant response rating (velvetleaf; [6]): 0 | Plant response rating, Velvetleaf (velvetleaf; Preemergence, 500 g ai/ha): 50 | Plant response rating, Pigweed (redroot pigweed; Postemergence, 125 g ai/ha): 40 | Pigweed plant response rating (redroot pigweed; [5]): 60 | Pigweed plant response rating (redroot pigweed; [6]): 50 | Plant response rating, Pigweed (redroot pigweed; Preemergence, 500 g ai/ha): 100 | Plant response rating, Barnyardgrass (barnyardgrass [2]; [8]): 0 | Plant response rating, Barnyardgrass (barnyardgrass [2]; [4]): 20 | Plant response rating, Foxtail, Giant (giant foxtail; Postemergence, 125 g ai/ha): 50 | Foxtail, Giant plant response rating (giant foxtail; [5]): 80 | Foxtail, Giant plant response rating (giant foxtail; [6]): 70 | Plant response rating, Foxtail, Giant (giant foxtail; Preemergence, 500 g ai/ha): 100 | Plant response rating, Morningglory (morningglory; Postemergence, 125 g ai/ha): 0 | Morningglory plant response rating (morningglory; [5]): 40 | Morningglory plant response rating (morningglory; [6]): 50 | Plant response rating, Morningglory (morningglory; Preemergence, 500 g ai/ha): 60 | Plant response rating, Crabgrass, Large (crabgrass; Postemergence, 125 g ai/ha): 60 | Crabgrass, Large plant response rating (crabgrass; [5]): 80 | Crabgrass, Large plant response rating (crabgrass; [6]): 60 | Plant response rating, Crabgrass, Large (crabgrass; Preemergence, 500 g ai/ha): 80 | Plant response rating, Corn (corn; Postemergence, 125 g ai/ha): 0 | Corn plant response rating (corn; [5]): 0 | Corn plant response rating (corn; [6]): 0 | Plant response rating, Corn (corn; Preemergence, 500 g ai/ha): 0

Cn1nc(C(F)(F)F)c(CS(=O)(=O)c2cc(Cl)cc[n+]2[O-])c1Cl [Compound 38]
Plant response rating, Ducksalad (duck salad; [9]): 0 | Plant response rating, Ducksalad (duck salad; [8]): 0 | Plant response rating, Ducksalad (duck salad; [10]): 0 | Plant response rating, Ducksalad (duck salad; [4]): 0 | Plant response rating, Rice (rice; [9]): 0 | Plant response rating, Rice (rice; [8]): 0 | Plant response rating, Rice (rice; [10]): 0 | Plant response rating, Rice (rice; [4]): 0 | Barnyardgrass plant response rating (barnyardgrass [1]; [11]): 0 | Barnyardgrass plant response rating (barnyardgrass [1]; [5]): 0 | Barnyardgrass plant response rating (barnyardgrass [1]; [6]): 30 | Plant response rating, Barnyardgrass (barnyardgrass [1]; Preemergence, 500 g ai/ha): 60 | Wheat plant response rating (wheat; [11]): 0 | Wheat plant response rating (wheat; [5]): 0 | Wheat plant response rating (wheat; [6]): 0 | Plant response rating, Wheat (wheat; Preemergence, 500 g ai/ha): 0 | Plant response rating, Sedge, Umbrella (umbrella sedge; [9]): 0 | Plant response rating, Sedge, Umbrella (umbrella sedge; [8]): 0 | Plant response rating, Sedge, Umbrella (umbrella sedge; [10]): 0 | Plant response rating, Sedge, Umbrella (umbrella sedge; [4]): 0 | Velvetleaf plant response rating (velvetleaf; [11]): 0 | Velvetleaf plant response rating (velvetleaf; [5]): 0 | Velvetleaf plant response rating (velvetleaf; [6]): 0 | Plant response rating, Velvetleaf (velvetleaf; Preemergence, 500 g ai/ha): 0 | Pigweed plant response rating (redroot pigweed; [11]): 0 | Pigweed plant response rating (redroot pigweed; [5]): 0 | Pigweed plant response rating (redroot pigweed; [6]): 0 | Plant response rating, Pigweed (redroot pigweed; Preemergence, 500 g ai/ha): 0 | Plant response rating, Barnyardgrass (barnyardgrass [2]; [9]): 0 | Plant response rating, Barnyardgrass (barnyardgrass [2]; [8]): 0 | Plant response rating, Barnyardgrass (barnyardgrass [2]; [10]): 0 | Plant response rating, Barnyardgrass (barnyardgrass [2]; [4]): 0 | Foxtail, Giant plant response rating (giant foxtail; [11]): 0 | Foxtail, Giant plant response rating (giant foxtail; [5]): 0 | Foxtail, Giant plant response rating (giant foxtail; [6]): 0 | Plant response rating, Foxtail, Giant (giant foxtail; Preemergence, 500 g ai/ha): 30 | Morningglory plant response rating (morningglory; [11]): 0 | Morningglory plant response rating (morningglory; [5]): 0 | Morningglory plant response rating (morningglory; [6]): 0 | Plant response rating, Morningglory (morningglory; Preemergence, 500 g ai/ha): 0 | Crabgrass, Large plant response rating (crabgrass; [11]): 0 | Crabgrass, Large plant response rating (crabgrass; [5]): 0 | Crabgrass, Large plant response rating (crabgrass; [6]): 0 | Plant response rating, Crabgrass, Large (crabgrass; Preemergence, 500 g ai/ha): 0 | Corn plant response rating (corn; [11]): 0 | Corn plant response rating (corn; [5]): 0 | Corn plant response rating (corn; [6]): 0 | Plant response rating, Corn (corn; Preemergence, 500 g ai/ha): 0
